Measurements as given in US11628179B2, “Compounds for treating and preventing extracellular histone mediated pathologies” (priority 2017, dated 2023).
Several values for one entry are separate records, joined by “and”; a condition that tells them apart may be missing. Equal entries are not always repeated. Structures can show the parent of a compound that is named as a salt.

What was measured:
Beagle dogs = test system: Beagle dogs
Method: This study was also conducted inter alia to determine the maximum tolerated dose (MTD) of the test item, mCBS, when administered by continuous (24 hours/day) intravenous infusion through a surgically-implanted catheter for 48 hours per dose level for up to 4 dose levels to Beagle dogs.
mCBS dose formulations were administered to Beagle dogs by continuous (24 hours/day) intravenous infusion for 48 hours per dose level for up to 4 dose levels, as described in the Table 15 below.
Parameters monitored during this phase of the study included mortality, clinical observations, body weights, and food consumption. Serial blood samples were collected from each animal to confirm mCBS plasma levels at the following time points: 24 and 48 hours post start of infusion of each dose level. Blood samples were also collected from each animal for clinical pathology evaluations (hematology, coagulation, and clinical chemistry) on Day 1, prior to administration of the new dose level on Days 3, 5, and 7, and on Day 9.

mice [1] = assay: In-vivo histone toxicity assay, organ damage markers at 4 hr; design: species or system mouse; details: 6.25, 25 and 100 mg/kg i.p. 10 min prior to histones 50 mg/kg i.v.; blood at 4 hr
whole blood coagulation = assay: Inhibition of histone-induced perturbation of whole blood coagulation (ROTEM); format: biochemical, human; details: mCBS 200 μg/mL
From the text: In comparison, the same volume of water had no effect (FIG. 19).

dog plasma proteins = assay: Plasma protein binding by ultrafiltration, dog plasma; format: in vitro ADME; details: for Concentration of mCBS, 200 ng/mL Post-filter / Concentration of mCBS, 200 ng/mL Pre-filter / Concentration of mCBS, 2000 ng/mL Post-filter / Concentration of mCBS, 2000 ng/mL Pre-filter: replicates and Mean
Method: (§1) Protein binding was assessed by an ultrafiltration method using Centrifree® Ultrafiltration Devices with a 30000 dalton molecular weight cut-off point. Briefly, known concentrations of mCBS (as free base) were added to human, rat and dog plasma samples and incubated for 20 min at 37° C. The samples were then subject to ultrafiltration to separate protein bound and unbound drug.
(§2) mCBS stock solutions (10 μL) were spiked into solutions of each test matrix (490 μL) as listed below in Table 9 to have a final concentration of 200 ng/mL & 2000 ng/m L.
(§3) Spiked samples were then incubated at 37° C. for 20 minutes in a water bath. Aliquots of the samples from each test group (500 μL) were transferred to the ultrafiltration devices (n=3) and centrifuged for 20 minutes at 1000 g. After centrifugation, aliquots of the ultrafiltrates (50 μL) were transferred to separate test tubes for extraction, alongside duplicate aliquots of the samples prior to ultrafiltration from each test group.
(§4) For quantification of samples before ultrafiltration, samples were analysed against a freshly prepared standard curve in plasma.

[2] = mCBS vs CBS levels in bulk powder stored at −20° C. (CAD); format: physicochemical
Method: Table 2b compares mCBS vs CBS levels in a representative batch of bulk powder when stored at −20° C. over 24 months. T is for time in months. T=0 or T0 represents analytical results carried out on completion of manufacture. Subsequent analysis indicated are relative to the initial analysis of the drug powder or formulation (e.g. […] Analytical method employing CAD (Charged Aerosol Detector) was used to measure the level of mCBS purity and its impurities and expressed as CAD %.

[3] = Stability of mCBS vs CBS in formulated clinical material (HPLC); format: physicochemical; details: formulated clinical material in phosphate buffer, 5±3° C., 25±2° C./60% RH, 40±2° C./75% RH
Method: Stability studies were carried out at 5±3° C., 25±2° C./60% RH and 40±2° C./75% RH ° C. conditions. Levels of both mCBS and cellobiose sulfate (CBS) were tracked in formulated clinical material (i.e. mCBS in phosphate buffer) via HPLC.

mice [4] = assay: In-vivo histone toxicity assay, circulating blood cells at 10 min; design: species or system mouse; details: 100 mg/kg i.p. 10 min prior to histones 50 mg/kg i.v.; bled 10 min later
Method: In-vivo histone toxicity assays. BALB/c female mice (5˜6 weeks of age), that are more prone to histone-induced anemia and easier to inject i.v. at this young age than C57BL/6 mice, were injected i.p. with test compounds at concentrations indicated 10 min prior to i.v. injection of histones (50 mg kg^−1) in phosphate buffered saline. Retro-orbital bleeds were performed at 10 min after histone injection and collected blood added to acid citrate dextrose (ACD), the 10 min blood sample being subjected to hematologic analyses for platelet and erythrocyte content using an ADVIA 2120i Hematology Analyzer. Spleens were also harvested at 10 min post-histone injection and splenic hemoglobin content quantified using a hemoglobin assay kit (Sigma-Aldrich). In the case of 4 h blood samples, male C57/BL/6 mice (6-8 weeks of age) were injected with test compounds and histones as above and plasma isolated and stored frozen for subsequent biochemical testing, with markers for liver (alanine aminotransferase, ALT), kidney (Creatinine, Crea) and general tissue (lactate dehydrogenase, LDH) damage being determined by the Department of Pathology, The Canberra Hospital.
Accordingly, the inventors in this example investigated the protective effect of mCBS on cells within the blood stream following intravenous injection of histones. […]

rat plasma proteins = assay: Plasma protein binding by ultrafiltration, rat plasma; format: in vitro ADME; details: for Concentration of mCBS, 200 ng/mL Post-filter / Concentration of mCBS, 200 ng/mL Pre-filter / Concentration of mCBS, 2000 ng/mL Post-filter / Concentration of mCBS, 2000 ng/mL Pre-filter: replicates and Mean
Method: as §1, §2, §3, §4

With CO[C@@H]1O[C@H](COS(=O)(=O)O)[C@@H](O[C@@H]2O[C@H](COS(=O)(=O)O)[C@@H](OS(=O)(=O)O)[C@H](OS(=O)(=O)O)[C@H]2OS(=O)(=O)O)[C@H](OS(=O)(=O)O)[C@H]1OS(=O)(=O)O [mCBS, β-O-methyl cellobioside sulfate] the “steady-state plasma concentration (Css) at the highest dose level” value (Beagle dogs; 2788 mg/kg/day) was “higher than 300 μg/mL”, the “maximum tolerated dose (MTD)” value (Beagle dogs; continuous (24 hours/day) IV infusion for 48 hours, free base corrected dose) was 2788 mg/kg/day and the “dose-limiting toxicity (adverse clinical sign)” value (Beagle dogs; stepwise administration up to 2788 mg/kg/day) was “No dose-limiting toxicity”. The “protection from histone-induced organ damage (LDH, ALT, creatinine)” value (mice [1]) was “protects animals from histone-mediated injury”, the “inhibition of histone-induced prolongation of clotting time” value (whole blood coagulation) was “able to inhibit the anticoagulant effects of both 400 and 800 μg/mL of histones” and the Plasma protein binding (dog plasma proteins; 200 ng/mL) was 19.6%. The Plasma protein binding (dog plasma proteins; 2000 ng/mL) was 21.0%, the “Concentration of mCBS, 200 ng/mL Post-filter” value (dog plasma proteins) was 194 ng/mL and 169 ng/mL and 186 ng/mL and the “Concentration of mCBS, 200 ng/mL Pre-filter” value (dog plasma proteins) was 230 ng/mL and 225 ng/mL. For the same compound, the “Concentration of mCBS, 2000 ng/mL Post-filter” value (dog plasma proteins) was 1970 ng/mL and 1840 ng/mL and 1900 ng/mL, the “Concentration of mCBS, 2000 ng/mL Pre-filter” value (dog plasma proteins) was 2490 ng/mL and 2330 ng/mL and the “Concentration of mCBS, 200 ng/mL Post-filter” value (dog plasma proteins; mean) was 183 ng/mL. The “Concentration of mCBS, 200 ng/mL Pre-filter” value (dog plasma proteins; mean) was 228 ng/mL, the “Concentration of mCBS, 2000 ng/mL Post-filter” value (dog plasma proteins; mean) was 1903 ng/mL and the “Concentration of mCBS, 2000 ng/mL Pre-filter” value (dog plasma proteins; mean) was 2410 ng/mL. For the same compound, the “stability when stored in powder” value ([2]; 24 months) was “high stability”, the “level in bulk powder” value ([2]; T0 (months)) was 98.56 CAD % and the “level in bulk powder” value ([2]; T1) was 98.45 CAD %. The “level in bulk powder” value ([2]; T3) was 98.28 CAD %, the “level in bulk powder” value ([2]; T6) was 98.22 CAD % and the “level in bulk powder” value ([2]; T9) was 97.77 CAD %. The “level in bulk powder” value ([2]; T12) was 98.00 CAD %, the “level in bulk powder” value ([2]; T18) was 97.94 CAD % and the “level in bulk powder” value ([2]; T24) was 98.26 CAD %. For the same compound, the “level relative to starting amount (T=0) over time” value [3] was “very stable”, the “histone-mediated reductions in circulating leukocytes, platelets, erythrocytes and haemoglobin” value (mice [4]) was “significantly inhibited if not completely abolished” and the Plasma protein binding (rat plasma proteins; 200 ng/mL) was 19.4%. The Plasma protein binding (rat plasma proteins; 2000 ng/mL) was 19.8%, the “Concentration of mCBS, 200 ng/mL Post-filter” value (rat plasma proteins) was 164 ng/mL and 177 ng/mL and 167 ng/mL and the “Concentration of mCBS, 200 ng/mL Pre-filter” value (rat plasma proteins) was 205 ng/mL and 217 ng/mL. The “Concentration of mCBS, 2000 ng/mL Post-filter” value (rat plasma proteins) was 1710 ng/mL and 1740 ng/mL and 1690 ng/mL, the “Concentration of mCBS, 2000 ng/mL Pre-filter” value (rat plasma proteins) was 2090 ng/mL and 2180 ng/mL and the “Concentration of mCBS, 200 ng/mL Post-filter” value (rat plasma proteins; mean) was 170 ng/mL. The “Concentration of mCBS, 200 ng/mL Pre-filter” value (rat plasma proteins; mean) was 211 ng/mL, the “Concentration of mCBS, 2000 ng/mL Post-filter” value (rat plasma proteins; mean) was 1713 ng/mL and the “Concentration of mCBS, 2000 ng/mL Pre-filter” value (rat plasma proteins; mean) was 2135 ng/mL.
